Data published in patent US8778643B2, “Methods for increasing lipid levels and producing triacylglycerols in algae” (priority 2012, dated 2014).
Where “and” joins values, the source holds several entries; their conditions need not be identical. Equal entries are not always repeated. Where two headings read alike, the source gives them in different places.

Legend:
[1] = test system: Phaeodactylum tricornutum; assay: Microplate assay: growth (absorbance 680 nm) and intracellular lipids (Nile Red fluorescence); assay type: cell-based; settings: for % Lipid increase based on Nile red fluorescence intensity / % Increase based on Nile Red Fluorescence Intensity: P. tricornutum; for % Lipid increase based on Nile red fluorescence intensity: t=day 0; for % Increase based on Nile Red Fluorescence Intensity: added t=day 0
[2] = test system: Nannochloropsis salina; settings: for % Lipid increase based on Nile red fluorescence intensity: DMSO, t=day 0; for % Increase based on Nile Red Fluorescence Intensity: added t=day 0
[3] = test system: Nannochloropsis oculata; settings: for Nile Red Fluorescence % Increase: compounds tested at 200 nM, initial screening, p<0.05
Description: (§1) Stock cultures were aerated by stirring with bubbling air (homemade manifold with Petco air pump, 2-4% CO2) or by orbital shaking (Thermo Scientific MAXQ 2000) at a constant speed of 150 rpm at 22±3° C. with a 16:8 hour light/dark cycle. Stocks were kept at stationary phase for use. Algae were prepared as dictated by culture center.
(§2) Compounds were selected based on reported biological activity in non-microalgae organisms. To ensure that compounds retained their quality, they were stored under advised conditions after purchasing from the manufacturer. Solutions of all assay compounds were prepared as 10 mM stock solutions by dissolving in DMSO in 2-dram amber vials and then stored in darkness −20° C. 96-well PCR plates were used to create a stock plate layout that was then transferred to the algae microplates. A plate map was used to distribute each compound to a well based on molecule name, collection number, and CAS number. For 20 μM and 200 nM assay plates, 10 mM compound stock in DMSO was diluted into plate maps of 5 mM and 50 μM assay stocks, respectively.
(§3) All materials for assay experiments were autoclaved before each use to maintain axenic algae cultures. Algae species were checked for homogeneity using a TS-100 light microscope (Nikon, Japan). […] Diluted stock solutions were made immediately prior to use for consistency and optimal plate growth. Cell density was measured on a Thermo Scientific Genesys 10S Vis Spectrophotometer (ThermoFisher, San Jose), using a 1 mL cuvette at 680 nm.
(§4) Plates were originally run in triplicate, before replicates were increased to quadruplicate, along with a separate control plate to compare growth. Due to extensive evaporation in exterior wells over time, our unique algae plate layout was designed to use the 60 interior wells out of 96 wells for the experiment. The 36 outer wells were filled with Millipore water and media to prevent evaporation and edge effects in the inner algae wells, as well as serve as blanks. The 60 wells with algae contained a total volume of 251 μL (100 μL of media+DMSO compound stock +150 μL dilute algae stock). For 20 μM and 200 nM assay plates, 10 mM compound stock in DMSO is diluted into plate maps of 5 mM and 50 μM assay stocks, respectively. […] Plates were parafilmed during growth to limit the amount of evaporation that can occur. Plates were numbered, and numerically ordered to ensure they got the same shaker space.
(§5) The shakers are kept at a constant shaking of 150 rpm. Ambient temperature is 22±3° C.

[4] = test system: Nannochloris sp.; assay: Microplate assay: growth (absorbance 680 nm) and intracellular lipids (Nile Red fluorescence); assay type: cell-based; settings: for Absorbance (percent increase) / Nile Red percent increase: initial microplate screen, relative to control
Description: as §1, §2, §3, §4, §5

[5] = test system: Nannochloropsis oculata; assay: Lipid composition of batch culture extracts (fatty acid saturation / PUFA by 1H NMR, MALDI-TOF, GC/MS); assay type: cell-based
Description: The nonpolar algal extracts were harvested from 500 mL cultures when indicated on growth curves, a minimum of 3 days into stationary phase. […] Cells were crushed and nonpolar lipids were extracted by sonication (Fisher Scientific Model 120 Sonic Dismembrator, ThermoFisher, San Jose) for 1 minute in chloroform, followed by chloroform-methanol extractions, washed with PBS butter, and dried under vacuum.^55-60 The crude non-polar algae extracts were then analyzed by ^1H Nuclear Magnetic Resonance (^1H NMR) for verification of TAG presence and examination of the purity of the extract (determination of level of chlorophyll). The extracts were then divided for analysis; one part for transesterification, one part to save as crude extract, and one part for SPE separation and MALDI-TOF analysis of TAGs.
Triacylglycerols can be isolated by solid-phase extraction (SPE) with 500 mg silica SPE cartridges (Silicycle, Quebec). The nonpolar extract is dissolved in 300 μL hexanes, and loaded on the SPE cartridge primed with hexanes. A mixture of 80:20:1 hexanes/diethyl ether/acetic acid was used as mobile phase to elute the TAGs.^61 SPE removes any chlorophyll in this process. Residual polar fraction containing polar lipids and chlorophyll was obtained by elution with acetone. All extracts and TAG fractions were dried under vacuum and stored under argon in amber vials at −20° C. before spectroscopic analysis. After SPE, the purified TAG fraction was reanalyzed with ^1H NMR spectroscopy for TAG characterization.
The TOF was in Reflectron mode with laser intensity from 5500-6500 Volts. Each acquisition consisted of 2500 shots with a focus mass of 900 Da, and a scan range of m/z 400-1100. Multiple acquisition scans were performed at different laser intensities to determine optimal conditions. Samples for the MALDI-TOF were diluted to 5 mg/mL in hexane, and spotted in the fast-evaporation method in a 1:2 ratio with DHB (2,5-dihydroxybenzoic acid) as the matrix. Re-spotting with methanol allowed for the matrix and sample to mix without hexane interactions, and allowed for better crystal formation. All samples on MALDI plate were allowed to dry before MS analysis. Data was normalized to base peak in all cases.
After the initial weight was recorded, the nonpolar extract set aside for transesterification was dissolved in 3.0 mL of 0.6 M sulfuric acid in methanol and stirred vigorously at 60° C. for 45 minutes.
Initial GC/MS temperature was 50° C. and end was 200° C. over at a one hour period for optimal FAME peak separation.
Peak assignment of fatty acids and their derivatives are based on NMR spectroscopic studies of previously reported algal lipid extracts^9 and comparison to standards such as olive oil (ACROS) and fatty acid mixtures.
We developed a quick and robust method to screen if the screened compound effect fatty acid saturation levels using ^1H NMR spectroscopy. The amount of saturated fatty acids (SFA), monounsaturated fatty acids (MUFAs), and polyunsaturated fatty acids (PUFAs) was determined using peak area ratios.
Calculated based on ^1H NMR integral ratios for the proton signals for the methyl group of PUFA components vs. the methyl groups of monounsaturated and saturated components.

[6] = test system: Nannochloropsis oculata; assay: 500 mL batch culture: growth, dry weight and lipid extract (gravimetric); assay type: cell-based
Description: Batch cultures were grown in 500 mL Pyrex media bottles with stirring and air bubbling (homemade manifold with Petco air pump, 2-4% CO2). Incoming air was sterile filtered by Polyvent 4 disposable filters (Whatman, Kent, UK). […] To minimize bacterial contamination, all equipment and materials were autoclaved and media was added to flask in a Purifier Vertical Clean bench (Labconco, Kansas City, Mo.). […] The amount of DMSO is standardized for all experiments to 0.4%.
For all compound cultures, the 2 mL DMSO stock solution was added to media (without algae) first and mixed well. Control cultures were grown without DMSO. DMSO controls consisted of 0.04-1.0% DMSO. After the addition of algae and media, the container was plugged with a bug stopper vented closure cap and mixed thoroughly. Absorbance is measured immediately for Day 0 analysis. Afterward, absorbance was measured every 1-2 days with a cuvette (1 mL volume) on the Thermo Scientific Genesys 10S V is Spectrophotometer (ThermoFisher, San Jose) at 680 nm.
Batch cultures were also repeated in triplicate and compared to a control culture grown at the same time. Algae were harvested and lipids were extracted for gravimetric analysis.
The nonpolar algal extracts were harvested from 500 mL cultures when indicated on growth curves, a minimum of 3 days into stationary phase.
Cell density was monitored by measuring absorbance at 680 nm every 1-2 days.
500-mL cultures were harvested 6 days into stationary phase based on absorbance values. Cells were concentrated by centrifugation and lyophilization to remove water. Nonpolar lipids were extracted by sonication and solvent (chloroform-methanol and PBS buffer). […] Changes in lipid levels for batch cultures were determined by crude lipid extract mass.

[7] = microplate assay, multiple concentrations
[8] = 200 nM, initial microplate screen, relative to control

Structure (SMILES): COc1cc(/C=C/C(=O)CC(=O)/C=C/c2ccc(O)c(OC)c2)ccc1O [Curcumin, (1E,6E)-1,7-bis (4-hydroxy-3-methoxyphenyl)-1,6-heptadiene-3,5-dione]
- % increase (lipid production) ([1]; 6-494 nM): 7-30%
- % increase (lipid production) ([2]; 0.0252 nM-0.227 nM (H2O)): 5-9 (H2O) %
- % increase (lipid production) ([2]; 18 nM-13 μM, DMSO delivery): 18-69%
- % increase (lipid production) ([3]; 0.0252-0.0757 nM): 4-10%
- % Lipid increase based on Nile red fluorescence intensity ([3]; N. oculata, 75.7 pM, DMSO, t=day 0): 49%
- % Increase based on Nile Red Fluorescence Intensity ([3]; N. oculata, 75.7 pM, DMSO delivery, added t=day 0): 49%

Structure (SMILES): Oc1cc(O)c2c(c1)O[C@H](c1cc(O)c(O)c(O)c1)[C@H](O)C2 [(−)-epigallocatechin, (2R,3R)-2-(3,4,5-trihydroxyphenyl)-3,4-dihydro-2H-chromene-3,5,7-triol]
- effect on lipid production / lipid levels [1, 7]: reduction in lipids
- effect on lipid production / lipid levels [4, 7]: reduction in lipids
- % Inc ([2]; increase of lipid production, N. salina, best conc. 39 nM): 216.15%
- effect on lipid production / lipid levels [2, 7]: reduction in lipids
- effect on lipid production / lipid levels [3, 7]: reduction in lipids

Structure (SMILES): O=c1c(O)c(-c2ccc(O)c(O)c2)oc2cc(O)cc(O)c12 [Quercitin]
- % Inc ([3]; increase of lipid production, N. oculata, best conc. 2.5 μM): 67.10%

Structure (SMILES): O=C(O)O [Bicarbonate]
- MUFAs (%) [5]: 13%
- PUFAs (%) [5]: 87%
- SFAs (%) [5]: 0%
- n3 PUFAs (%) [5]: 20%

Structure (SMILES): O=c1c(-c2ccc(O)cc2)coc2cc(O)cc(O)c12 [Genistein, 5,7-Dihydroxy-3-(4-hydroxyphenyl)chromen-4-one]
- % increase (lipid production) ([1]; 54 nM-40 μM (H2O)): 16-70%
- % increase (lipid production) ([2]; […]-40 μM): 11-85%

Structure (SMILES): N#CC(C#N)=Cc1cc(O)c(O)c(O)c1 [AG82]
- Nile Red Fluorescence % Increase ([4]; Nannochloris sp., compounds tested at 20 μM, initial screening, p<0.05): 54.2%
- Nile Red Fluorescence % Increase ([3]; N. oculata): 144.5%

Structure (SMILES): Nc1cc2ncnc(Nc3cccc(Br)c3)c2cc1N [BPDQ, 4-[(3-bromophenyl)amino]-6,7-diamino-quinazoline]
- % Lipid increase based on Nile red fluorescence intensity ([1]; 400 fM, (water)): 63%
- % Increase based on Nile Red Fluorescence Intensity ([1]; 400 fM, dissolved in water): 63%
- Absorbance (percent increase) ([4]; 200 nM): −6.5%
- Nile Red percent increase ([4]; 200 nM): 75.8%
- Absorbance (percent increase) [2, 8]: −6.7%
- Nile Red percent increase [2, 8]: 54.9%
- % Lipid increase based on Nile red fluorescence intensity ([2]; N. salina, concentration 6.0 (unit not given)): 130%
- % Increase based on Nile Red Fluorescence Intensity ([2]; N. salina, 6.0 nM, DMSO delivery): 130%
- % Increase based on Nile Red Fluorescence Intensity ([2]; N. salina, 55 nM, DMSO delivery): 86%

Structure (SMILES): O=C([O-])O.[Na+] [NaHCO3]
- Absorbance at harvest [6]: 2.373 ± 0.217
- Dry weight [6]: 371 ± 117.8
- Extract Weight [6]: 93.5 ± 34.0

Structure (SMILES): COc1cc(C[C@H]2C(=O)OC[C@@H]2Cc2ccc(OC)c(OC)c2)ccc1O [Arctigenin, (3R,4R)-4-[(3,4-dimethoxyphenyl)methyl]-3-[(4-hydroxy-3-methoxyphenyl)methyl]-2-tetrahydrofuranone]
- % Lipid increase based on Nile red fluorescence intensity ([1]; 41.2 nM, DMSO): 61%
- % Increase based on Nile Red Fluorescence Intensity ([1]; 41.2 nM, DMSO delivery): 61%
- Absorbance (percent increase) ([4]; 200 nM): −3.4%
- Nile Red percent increase ([4]; 200 nM): 66.0%
- Absorbance (percent increase) ([4]; 20 μM): −5.4%
- Nile Red percent increase ([4]; 20 μM): 79.0%
- % Lipid increase based on Nile red fluorescence intensity ([2]; N. salina, 370.4 nM): 64%
- % Increase based on Nile Red Fluorescence Intensity ([2]; N. salina, 13 nM, DMSO delivery): 59%
- % Increase based on Nile Red Fluorescence Intensity ([2]; N. salina, 370.4 nM, DMSO delivery): 64%
- Nile Red Fluorescence % Increase ([3]; N. oculata): 152.2%

Structure (SMILES): O=C(NCCCCCCNC(=O)ON=C1CCCCC1)ON=C1CCCCC1 [RHC80267, 1,6-bis(Cyclohexyloximinocarbonylamino)hexane]
- % change in abs [1]: −6.46%
- % in NR fl [1]: 45.19%
- % in NR fl [2]: 71.52% and 68.33%
- % change in abs [3]: 12.83%
- % in NR fl [3]: 49.41%

Structure (SMILES): OCC(O)CO [Glycerol, propane-1,2,3-triol]
- SFAs (% of total lipids) ([5]; 11 mM, 1H NMR, Normal 24): 39 % of total lipids
- n3 PUFAs (% of UFAs) ([5]; 11 mM, 1H NMR, Normal 37): 16 % of UFAs
- All other PUFAs and MUFAs (% of UFAs) ([5]; 11 mM, 1H NMR, Normal 63): 84 % of UFAs
- UFAs (% of total lipids) ([5]; 11 mM, 1H NMR, Normal 76): 61 % of total lipids
- SFAs (%) ([5]; N. oculata, 1 g/L, n=1, Normal 0 ± 1): 30%
- MUFAs (%) ([5]; N. oculata, 1 g/L, n=1, Normal 4 ± 7): 33%
- n3 PUFAs (%) ([5]; N. oculata, 1 g/L, n=1, Normal 28 ± 4): 10%
- PUFAs (%) ([5]; N. oculata, 1 g/L, n=1, Normal 96 ± 7): 38%
